Experimental data published in patent US20250214925A1, “CATIONIC LIPID, LIPOSOME, LIPID NANOPARTICLE, AND USE” (CARCELL BIOPHARMA LTD., priority 2022, published 2025).

What was measured:
mice = experiment: In vivo delivery of Ffluc mRNA LNP in mice, intravenous administration, luminescence relative to MC3; design: species or system mice (female Balb/C); settings: fold change in luminescence intensity relative to MC3; 0.06 mg/kg tail vein; 6 h after injection
Protocol: The prepared encapsulation solution was applied to mice in the following manner, and its delivery efficiency in mice was tested. Among them, DLin-MC3-DMA (MC3) was a cationic liposome for delivering small nucleic acids that was approved by the FDA for marketing in 2018, which has high nucleic acid drug delivery efficiency and biosafety, and was usually used as the industry gold standard in the screening process of cationic lipids. In the evaluation of mice experiments, the ratio of nucleic acid delivery efficiency normalized to MC3 was greater than 0.1, which was considered to be a cationic lipid with high delivery efficiency.
1. The LNP solution was diluted with 50 mM TBS, pH 7.4 to a concentration of 0.1 mg/mL mRNA.
2. The mice involved in this study were female Balb/C, weighing 18-22 g, 6-8 weeks old, with 5 mice in each group.
3. The dosing solution was kept at 4° C. prior to injection.
4. Each mice received 0.06 mg/kg via tail vein injection.
5. The mice were injected intraperitoneally with 200 μL of 1.5 mg/mL D-luciferin solution 6 h after injection.
6. The in vivo luminescence images of the mice were obtained using the IVIS system (Aniview).
7. The luminescence intensity of each mice was measured using Aniview software.
8. MC3 lipid nanoparticles were used as a positive control. The in vivo efficacy of each cationic lipid tested was recorded as the fold change in luminescence intensity relative to MC3 (ratio normalized to MC3).

[1] = LNP size and PDI by dynamic laser light scattering; type: physicochemical; settings: LNP: 50% cationic lipid, 38.5% cholesterol, 10% DSPC, 1.5% DMG-PEG2000; Ffluc mRNA
Protocol: (§1) 1. The cationic lipid (50 mg/mL) prepared in the above examples of the present disclosure, cholesterol (20 mg/mL), DSPC (20 mg/mL) and DMG-PEG2000 (20 mg/mL) were dissolved in ethanol, and the solution was placed in a 55° C. metal thermostatic bath as needed to aid dissolution, to obtain a lipid mixture with the following molar composition: 1.5% DMG-PEG2000, 50% cationic lipid, 38.5% cholesterol, and 10% DSPC.
(§2) 2. The mRNA encoding Ffluc was diluted with 10 mM pH 4.0 citrate buffer to prepare a 0.2 mg/mL mRNA solution.
(§3) 3. The lipid mixture prepared in step 1 was mixed with the mRNA solution prepared in step 2 using a syringe pump with a tee at a total flow rate of 40 mL/min.
(§4) 4. The LNP mixture was collected after the three-way mixing and placed in a dialysis bag with a molecular weight cut-off of 100 KDa.
(§5) 5. The LNP mixture was dialyzed overnight against 50 mM Tris-buffered saline, pH 7.4.
(§6) 6. Sieving, and subsequent measurement of the sieved LNP to measure the PDI of the LNP by dynamic laser light scattering; to measure the mRNA encapsulation efficiency and concentration by Ribogreen assay; and to measure the pKa by TNS-α assay.

[2] = mRNA encapsulation efficiency of LNP by Ribogreen assay; type: physicochemical; settings: LNP: 50% cationic lipid, 38.5% cholesterol, 10% DSPC, 1.5% DMG-PEG2000; Ffluc mRNA
Protocol: as §1, §2, §3, §4, §5, §6

| PDI [1] | Size (nm) [1] [nm] | Encapsulation Rate [2] [%] | Molecule | In Vivo Efficacy Normalized To Mc3 In Mice (Intravenous Injection) (mice) |
| --- | --- | --- | --- | --- |
| – | – | – | 3-((((2-(dimethylamino)ethoxy)carbonyl)oxy)-2-((((E)-3-hexylundec-2-enoyl)oxy)methyl)propyl(97,127)-octadeca-9,12-dienoate [CPL-203] | 0.23 |
| 0.0594 | 62.9 | 96 | CCCCC/C=C\C/C=C\CCCCCCCC(=O)OCC(COC(=O)C=C(CCCCCCCCC)CCCCCCCCC)COC(=O)OCCCN(CC)CC (centres unmarked) [CPL-001-01, 3-(((3-(diethylamino)propoxy)carbonyl)oxy)-2-(((3-nonyldodec-2-enoyl)oxy)methyl)propyl(9Z,12Z)-octadeca-9,12-dienoate] | 2.00 |
| 0.2448 | 92.39 | 94 | CCCCCCC/C(=C/C(=O)OCCCCN(CCCO)CCCCOC(=O)/C=C(\CCCCCC)CCCCCCC)CCCCCC [CPL-031, ((3-hydroxypropyl)azanediyl)bis(butane-4,1-diyl) (2E,2′E)-bis(3-hexyldec-2-enoate)] | 0.75 |
| 0.1692 | 90.11 | 91 | CCCCCCCC/C(=C\C(=O)OCCCCN(CCCO)CCCCOC(=O)/C=C(/CCCCCCC)CCCCCCCC)CCCCCCC [CPL-032, ((3-hydroxypropyl)azanediyl)bis(butane-4,1-diyl)(2Z,2′Z)-bis(3-heptylundec-2-enoate)] | 1.18 |
| 0.2202 | 97.61 | 94 | CCCCCCCC/C(=C/C(=O)OCCCCCN(CCCO)CCCCCOC(=O)/C=C(\CCC)CCCCCCCC)CCC [CPL-039, ((3-hydroxypropyl)azanediyl)bis(pentane-5,1-diyl)(2E,2′E)-bis(3-propylundec-2-enoate)] | 1.44 |
| 0.1723 | 77.48 | 95 | CCCCCCCC/C(=C/C(=O)OCCCCCN(CCCO)CCCCCOC(=O)/C=C(\CCCC)CCCCCCCC)CCCC [CPL-043, ((3-hydroxypropyl)azanediyl)bis(pentane-5,1-diyl)(2E,2′E)-bis(3-butylundec-2-enoate)] | 1.58 |
| 0.15 | 78.4 | 98 | CCCCCCCCCC/C(=C/C(=O)OCCCCCN(CCCO)CCCCCOC(=O)/C=C(\CCCC)CCCCCCCCCC)CCCC [CPL-044, ((3-hydroxypropyl)azanediyl)bis(pentane-5,1-diyl)(2E,2′E)-bis(3-butyltridec-2-enoate)] | 1.26 |
| – | – | – | CCCCC/C=C\C/C=C\CCCCCCCC(=O)OCC(COC(=O)C=C(CCCCCCCCCC)CCCCCCCCCC)COC(=O)OCCCN(C)C (centres unmarked) [CPL-234, 3-((3-decyltridec-2-enoyl)oxy)-2-((((3-(dimethylamino)propoxy)carbonyl)oxy)methyl)propyl(9Z,12Z)-octadeca-9,12-dienoate] | 0.96 |
| 0.2607 | 119.6 | 97 | CCCCC/C=C\C/C=C\CCCCCCCC(=O)OCC(COC(=O)/C=C(\CCC)CCCCCC)COC(=O)OCCC1CCN(C)CC1 (centres unmarked) [CPL-280, 3-(((2-(1-methylpiperidin-4-yl)ethoxy)carbonyl)oxy)-2-((((E)-3-propylnon-2-enoyl)oxy)methyl)propyl(9Z,12Z)-octadeca-9,12-dienoate] | – |
| 0.1371 | 83 | 97 | CCCCC/C=C\C/C=C\CCCCCCCC(=O)OCC(COC(=O)/C=C(\CCCCC)CCCCCCCC)COC(=O)OCCC1CCN(C)CC1 (centres unmarked) [CPL-289, 3-(((2-(1-methylpiperidin-4-yl)ethoxy)carbonyl)oxy)-2-((((E)-3-pentylundec-2-enoyl)oxy)methyl)propyl(9Z,12Z)-octadeca-9,12-dienoate] | – |
| 0.1615 | 105.5 | 98 | CCCCC/C=C\C/C=C\CCCCCCCC(=O)OCC(COC(=O)/C=C(\CCCCC)CCCCCCCCCC)COC(=O)OCCC1CCN(C)CC1 (centres unmarked) [CPL-290] | – |
| 0.0937 | 76.44 | 93 | CCCCC/C=C\C/C=C\CCCCCCCC(=O)OCC(COC(=O)/C=C(\CCCC)CCCCC)COC(=O)OCC(C)(C)CN(C)C (centres unmarked) [CPL-309, 3-(((E)-3-butyloct-2-enoyl)oxy)-2-((((3-(dimethylamino)-2,2-dimethylpropoxy)carbonyl)oxy)methyl)propyl(9Z,12Z)-octadeca-9,12-dienoate] | – |
| 0.1387 | 75.82 | 93 | CCCCC/C=C\C/C=C\CCCCCCCC(=O)OCC(COC(=O)/C=C(\CCCC)CCCCCCC)COC(=O)OCC(C)(C)CN(C)C (centres unmarked) [CPL-316, 3-(((E)-3-butyldec-2-enoyl)oxy)-2-((((3-(dimethylamino)-2,2-dimethylpropoxy)carbonyl)oxy)methyl)propyl(9Z,12Z)-octadeca-9,12-dienoate] | – |
| 0.1065 | 69.76 | 85 | CCCCCC/C(=C/C(=O)OCCCCCCCCN(CCO)CCCCCCCCOC(=O)/C=C(\CCCC)CCCCCC)CCCC [CPL-455-01, ((2-hydroxyethyl)azanediyl)bis(octane-8,1-diyl) (2E,2′E)-bis(3-butylnon-2-enoate)] | – |
| – | – | – | CCCCCCCCCC/C(=C/C(=O)OCCCCCN(CCCO)CCCCCOC(=O)/C=C(\CCCC)CCCCCCCCCC)CCC [CPL-1092] | 0.83 |

| Molecule | PDI [1] | Size (nm) [1] [nm] | Encapsulation Rate [2] [%] | In Vivo Efficacy Normalized To Mc3 In Mice (Intravenous Injection) (mice) |
| --- | --- | --- | --- | --- |
| CCCCCCCC/C(=C/C(=O)OCCCCCN(CCCCO)CCCCCOC(=O)/C=C(\CCCCCC)CCCCCCCC)CCCCCC [CPL-003, ((4-hydroxybutyl)azanediyl)bis(pentane-5,1-diyl)(2E,2′E)-bis(3-hexylundec-2-enoate)] | 0.205 | 98 | 92 | 1.55 |
| CCCCCCCC/C(=C/C(=O)OCCCCCCN(CCCO)CCCCCCOC(=O)/C=C(\CCCCC)CCCCCCCC)CCCCC [CPL-047, ((3-hydroxypropyl)azanediyl)bis(hexane-6,1-diyl) (2E,2′E)-bis(3-pentylundec-2-enoate)] | 0.25 | 114.7 | 96 | 1.59 |
| CCCCC/C=C\C/C=C\CCCCCCCC(=O)OCC(COC(=O)/C=C(\CCCCCCC)CCCCCCCC)COC(=O)OCCN(C)C (centres unmarked) [CPL-208, 3-(((2-(dimethylamino)ethoxy)carbonyl)oxy)-2-((((E)-3-heptylundec-2-enoyl)oxy)methyl)propyl(9Z,12Z)-octadeca-9,12-dienoate] | 0.2382 | 96.3 | 95 | – |
| CCCCC/C=C\C/C=C\CCCCCCCC(=O)OCC(COC(=O)C=C(CCCCCCCCCC)CCCCCCCCCC)COC(=O)OCC(C)(C)CN(C)C (centres unmarked) [CPL-322, 3-((3-decyltridec-2-enoyl)oxy)-2-((((3-(dimethylamino)-2,2-dimethylpropoxy)carbonyl)oxy)methyl)propyl(9Z,12Z)-octadeca-9,12-dienoate] | 0.1302 | 96.21 | 94 | – |
| CCCCC/C=C\C/C=C\CCCCCCCC(=O)OCC(COC(=O)/C=C(\CCCCC)CCCCCC)COC(=O)OCCCN1CCN(C)CC1 (centres unmarked) [CPL-398, 3-(((3-(4-methylpiperazin-1-yl)propoxy)carbonyl)oxy)-2-((((E)-3-pentylnonan-2-enoyl)oxy)methyl)propyl(9Z,12Z)-octadeca-9,12-dienoate] | 0.0778 | 115.7 | 97 | – |
| CCCCC/C=C\C/C=C\CCCCCCCC(=O)OCC(COC(=O)/C=C(/CCCCCCCC)CCCCCCCCCC)COC(=O)OCCCN1CCN(C)CC1 (centres unmarked) [CPL-409, 3-(((3-(4-methylpiperazin-1-yl)propoxy)carbonyl)oxy)-2-((((Z)-3-octyltridec-2-enoyl)oxy)methyl)propyl(9Z 12Z)-octadeca-9,12-dienoate] | 0.1474 | 94.97 | 96 | – |
